{"source": "patent US20240254143A1", "about": "“OREXIN RECEPTOR AGONISTS AND USES THEREOF” (JAZZ PHARMACEUTICALS IRELAND LIMITED, priority 2021, published 2024)", "data": [{"biological_target": "T1, human recombinant OX2 (hOX2) receptor (Homo sapiens, UniProt O43614)", "T1 construct": "host or cells: CHO cells", "T1 sequence (O43614 1-444)": "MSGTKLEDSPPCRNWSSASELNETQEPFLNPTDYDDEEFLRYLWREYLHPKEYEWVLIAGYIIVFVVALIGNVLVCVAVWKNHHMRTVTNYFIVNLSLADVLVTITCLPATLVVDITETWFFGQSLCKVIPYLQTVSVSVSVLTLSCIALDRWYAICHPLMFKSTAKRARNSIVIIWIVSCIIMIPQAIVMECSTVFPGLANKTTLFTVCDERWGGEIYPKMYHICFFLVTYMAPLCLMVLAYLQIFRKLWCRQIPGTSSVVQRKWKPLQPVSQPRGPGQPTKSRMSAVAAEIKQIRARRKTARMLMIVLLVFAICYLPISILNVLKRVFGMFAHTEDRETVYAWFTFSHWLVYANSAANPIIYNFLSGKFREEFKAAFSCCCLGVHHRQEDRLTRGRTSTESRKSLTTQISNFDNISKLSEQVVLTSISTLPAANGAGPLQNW", "test": "IP-1 accumulation assay (IP-One HTRF) in hOX2-CHO cells", "assay_type": "cell-based", "conditions": "60 min at 37° C., mean of at least two independent experiments, read-out: EC50_OX2R Category", "description": "Example 94: IP-1 Accumulation Assay\nThe accumulation of Inositol-1 Monophosphate (IP-1) was measured using IP-One HTRF® Terbium cryptate based assay (Cisbio) in human recombinant OX1 (hOX1) and at OX2 (hOX2) receptors expressed in CHO cells (DiscoverX) according to the manufacturer's instructions for cells tested in suspension.\nhOX1-CHO and hOX2-CHO cells were seeded into white 384-well plates at a density of 20,000 cells/well in Hank's Balanced Salt Solution (HBSS) containing 20 mM HEPES pH 7.4, 50 mM, LiCl and 0.1% and Bovine Serum Albumin (BSA).\nCompounds of the present disclosure were tested in a 11 points concentration response curve (CRC) serially diluted in neat DMSO at 200 fold concentrations and added by Echo acoustic liquid handling (Labcyte) to the cells (0.5% DMSO final in the assay). After 60 min of incubation at 37° C. detection reagents, IP1-d2 tracer and anti-IP1-cryptate were diluted in lysis buffer according to the manufacturer's descriptions and added to the cells.\nFollowing 60 mi incubation at room temperature, time-resolved fluorescence (HTRF) was measured at 615 nm and 665 nm by Envision Multilabel reader (Perkin Elmer) and the HTRF ratio (A665/A615×10^4) was calculated.\nThe IP-1 accumulation response was expressed as percentage of the maximal OX-A response.\nCurve fitting and EC50 estimations were carried out using a four-parameter logistic model using XLfit Software. Mean data of EC50 are calculated from at least two independent experiments performed in duplicates.", "units": {"EC50": "nM"}, "values": [{"smiles": "CCNC(=O)N1CCCC2(CCCC(=O)N2)C1CO[C@H]1CC[C@@H](c2ccccc2)CC1", "note": "(mixture of isomers) [Example 33, rel-(6S,7R)-N-ethyl-2-oxo-7-({[(CIS)-4-phenylcyclohexyl]oxy}methyl)-1,8-diazaspiro[5.5]undecane-8-carboxamide]", "EC50": "< 100"}, {"smiles": "CCNC(=O)N1CCC2(COC(=O)N2)C1CO[C@H]1CC[C@@H](c2ccccc2)CC1", "note": "(mixture of isomers) [Example 18, (CIS)-N-ethyl-2-oxo-6-({[(CIS)-4-phenylcyclohexyl]oxy}methyl)-3-oxa-1,7-diazaspiro[4.4]nonane-7-carboxamide]", "EC50": "> 10000"}, {"smiles": "CCNC(=O)N1CCCC2(CCOC(=O)N2)C1CO[C@H]1CC[C@@H](c2ccccc2)CC1", "note": "(stereo partly drawn) [Example 12, (Trans)-N-ethyl-2-oxo-7-({[(CIS)-4-phenylcyclohexyl]oxy}methyl)-3-oxa-1,8-diazaspiro[5.5]undecane-8-carboxamide]", "EC50": "1000 to 10000"}, {"smiles": "CCNC(=O)N1CC[C@]2(COCC(=O)N2)[C@H]1CO[C@H]1CC[C@@H](c2ccccc2)CC1", "note": "(single isomer, unassigned) [Example 17]", "EC50": "> 10000"}, {"smiles": "O=C1N[C@]2(CCO1)[C@H](Cc1cccc(-c3cc(F)cc(F)c3)c1F)N(C(=O)[C@H]1C[C@@H](F)C1)CC2(F)F", "note": "(relative stereo) [Example 79, rel-(1S,5R)-4,4-difluoro-2-[(CIS)-3-fluorocyclobutanecarbonyl]-1-({2,3′,5′-trifluoro-[1,1′-biphenyl]-3-yl}methyl)-8-oxa-2,6-diazaspiro[4.5]decan-7-one]", "EC50": "100 to 1000"}, {"smiles": "CCNC(=O)N1CCC[C@@]2(CCOC(=O)N2)[C@@H]1Cc1cccc(-c2ccccc2)c1", "note": "[Example 27, (6R,7S)-7-({[1,1′-biphenyl]-3-yl}methyl)-N-ethyl-2-oxo-3-oxa-1,8-diazaspiro[5.5]undecane-8-carboxamide]", "EC50": "100 to 1000"}, {"smiles": "CCNC(=O)N1CCCC2(CCOC(=O)N2)C1CO[C@H]1CC[C@@H](c2ccccc2)CC1", "note": "(stereo partly drawn) [Example 11, (CIS)-N-ethyl-2-oxo-7-({[(CIS)-4-phenylcyclohexyl]oxy}methyl)-3-oxa-1,8-diazaspiro[5.5]undecane-8-carboxamide]", "EC50": "< 100"}, {"smiles": "COCCNC(=O)N1[C@H](C)C[C@@]2(COCC(=O)N2)[C@@H]1CO[C@H]1CC[C@@H](c2ccccc2)CC1", "note": "[Example 51, (1R,3R,5S)-N-(2-methoxyethyl)-3-methyl-7-oxo-1-({[(CIS)-4-phenylcyclohexyl]oxy}methyl)-9-oxa-2,6-diazaspiro[4.5]decane-2-carboxamide]", "EC50": "< 100"}, {"smiles": "C[C@@H]1C[C@@]2(COCC(=O)N2)[C@H](Cc2cccc(-c3cc(F)cc(F)c3)c2F)N1C(=O)[C@H]1CCO1", "note": "[Example 89, (1S,3R,5S)-3-methyl-2-[(2R)-oxetane-2-carbonyl]-1-({2,3′,5′-trifluoro-[1,1′-biphenyl]-3-yl}methyl)-9-oxa-2,6-diazaspiro[4.5]decan-7-one]", "EC50": "100 to 1000"}, {"smiles": "O=C1COC[C@@]2(CCCN(C(=O)C3CC3)[C@H]2CO[C@H]2CC[C@@H](c3ccccc3)CC2)N1", "note": "(single isomer, unassigned) [Example 9]", "EC50": "100 to 1000"}, {"smiles": "COC(=O)N1[C@H](C)C[C@@]2(COCC(=O)N2)[C@@H]1Cc1cccc(-c2cc(F)cc(F)c2)c1F", "note": "[Example 85, Methyl (1S,3R,5S)-3-methyl-7-oxo-1-({2,3′,5′-trifluoro-[1,1′-biphenyl]-3-yl}methyl)-9-oxa-2,6-diazaspiro[4.5]decane-2-carboxylate]", "EC50": "> 10000"}, {"smiles": "CCNC(=O)N1CCCC2(COC(F)C(=O)N2)C1CO[C@H]1CC[C@@H](c2ccccc2)CC1", "note": "(relative stereo) [Example 41, rel-(6S,7R)-N-ethyl-3-fluoro-2-oxo-7-({[(CIS)-4-phenylcyclohexyl]oxy}methyl)-4-oxa-1,8-diazaspiro[5.5] undecane-8-carboxamide]", "EC50": "< 100"}, {"smiles": "C[C@@H]1C[C@@]2(COCC(=O)N2)[C@H](CO[C@H]2CC[C@@H](c3ccccc3)CC2)N1C(=O)[C@H]1C[C@@H](F)C1", "note": "[Example 59, (1R,3R,5S)-3-methyl-2-[(1s,3s)-3-fluorocyclobutanecarbonyl]-1-({[(CIS)-4-phenylcyclohexyl]oxy}methyl)-9-oxa-2,6-diazaspiro[4.5]decan-7-one]", "EC50": "< 100"}]}]}
